The test system of the experiment is L1210 leukemia ip in BDF1 mice, survival T/C. Put plainly: NCI In Vivo Anticancer Drug Screen. Data for tumor model L1210 Leukemia (intraperitoneal) in B6D2F1 (BDF1) mice. To be noted: endpoint: mean survival time, higher = longer survival. Put shortly:
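Survival endpoint. Drug-treated group vs vehicle group, expressed as T divided by C. Tumor passaged by transplantation.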

The mark [1] stands for this setting: dose: 100.0 mg/kg/injection, schedule: Q04DX002 (ip), vehicle: Klucel (hydroxypropylcellulose) (HPC).
Where [2] appears, read: dose: 200.0 mg/kg/injection, schedule: Q04DX002 (ip), vehicle: Klucel (hydroxypropylcellulose) (HPC).
Setting [3] is: dose: 400.0 mg/kg/injection, schedule: Q04DX002 (ip), vehicle: Klucel (hydroxypropylcellulose) (HPC).

SMILES strings stand for the structures. Values joined by “and” are separate entries in the source; they are usually repeats but may differ in a detail not shown here. Equal values may be shown once. Inconclusive results and toxic doses are left out.

As to `N=C(N)N/N=C(/c1ccccc1)c1ccc(Oc2ccc(/C(=N/NC(=N)N)c3ccccc3)cc2)cc1`, the T/C was 95 % of control (dose: 60.0 mg/kg/injection, schedule: Q01DX Z (oral), vehicle: methylcellulose (MC)); 101 % of control (dose: 240.0 mg/kg/injection, schedule: Q01DX Z (ip), vehicle: methylcellulose (MC)); 97 % of control (dose: 240.0 mg/kg/injection, schedule: Q01DX Z (oral), vehicle: methylcellulose (MC)); 102 % of control (dose: 360.0 mg/kg/injection, schedule: Q01DX Z (ip), vehicle: methylcellulose (MC)); 101 % of control (dose: 480.0 mg/kg/injection, schedule: Q01DX Z (ip), vehicle: methylcellulose (MC)); 111 % of control (dose: 480.0 mg/kg/injection, schedule: Q01DX Z (oral), vehicle: methylcellulose (MC)).

`c1cncc(C2OCCO2)c1`: the T/C is, setting by setting: (dose: 100.0 mg/kg/injection, schedule: Q04DX003 (ip), vehicle: saline) 98 % of control; (dose: 200.0 mg/kg/injection, schedule: Q04DX003 (ip), vehicle: saline) 92 % of control; (dose: 400.0 mg/kg/injection, schedule: Q04DX003 (ip), vehicle: saline) 105 % of control.

Regarding `Cc1cccc(OC(F)(F)C(F)Cl)c1` (stereo not drawn), the T/C reads like this: (dose: 100.0 mg/kg/injection, schedule: Q01DX009 (ip), vehicle: saline with Tween-80) 94 % of control; (dose: 100.0 mg/kg/injection, schedule: Q04DX003 (ip), vehicle: saline with Tween-80) 93 % of control; (dose: 200.0 mg/kg/injection, schedule: Q01DX009 (ip), vehicle: saline with Tween-80) 92 % of control; (dose: 200.0 mg/kg/injection, schedule: Q04DX003 (ip), vehicle: saline with Tween-80) 93 % of control; (dose: 400.0 mg/kg/injection, schedule: Q01DX009 (ip), vehicle: saline with Tween-80) 100 % of control; (dose: 400.0 mg/kg/injection, schedule: Q04DX003 (ip), vehicle: saline with Tween-80) 95 % of control.

Take `N#Cc1nc2c(nc1C#N)-c1ccccc1C2=O`: the T/C was 99 % of control (dose: 6.25 mg/kg/injection, schedule: Q01DX009 (ip), vehicle: Klucel (hydroxypropylcellulose) (HPC)); 94 % of control (dose: 12.5 mg/kg/injection, schedule: Q01DX009 (ip), vehicle: Klucel (hydroxypropylcellulose) (HPC)); 104 % of control (dose: 12.5 mg/kg/injection, schedule: Q04DX003 (ip), vehicle: Klucel (hydroxypropylcellulose) (HPC)); 112 % of control (dose: 25.0 mg/kg/injection, schedule: Q04DX003 (ip), vehicle: Klucel (hydroxypropylcellulose) (HPC)).

For the molecule `CCOC(=O)CCC(NC(=O)c1cc(Cl)c(N(CC)Cc2cnc3nc(N)nc(N)c3n2)c(Cl)c1)C(=O)OCC` (stereo not drawn), the T/C (dose: 25.0 mg/kg/injection, schedule: Q01DX009 (ip), vehicle: Klucel (hydroxypropylcellulose) (HPC)) was 179 % of control.

`CN(C)C(=O)C(=O)c1c[nH]c2ccccc12`: the T/C under setting [1] was 118 % of control, the T/C under setting [2] is 109 % of control and the T/C under setting [3] is 109 % of control.

Consider `Oc1cccc2cccnc12.[Cu+].[O-]c1cccc2cccnc12`, for which the T/C was 97 % of control (dose: 2.5 mg/kg/injection, schedule: Q01DX009 (ip), vehicle: saline); 98 % of control (dose: 2.5 mg/kg/injection, schedule: Q04DX003 (ip), vehicle: alcohol); 108 % of control (dose: 5.0 mg/kg/injection, schedule: Q01DX009 (ip), vehicle: saline); 112 % of control (dose: 5.0 mg/kg/injection, schedule: Q04DX003 (ip), vehicle: alcohol); 98 % of control (dose: 10.0 mg/kg/injection, schedule: Q01DX009 (ip), vehicle: saline); 104 % of control (dose: 10.0 mg/kg/injection, schedule: Q04DX003 (ip), vehicle: alcohol).

With `CNCCC(=O)NCC1C(c2ccccc2)C1c1ccccc1` (stereo not drawn), the T/C was 97 % of control (dose: 6.25 mg/kg/injection, schedule: Q04DX002 (ip), vehicle: saline with Tween-80); 93 % of control and 96 % of control (dose: 12.5 mg/kg/injection, schedule: Q04DX002 (ip), vehicle: saline with Tween-80); 100 % of control (dose: 25.0 mg/kg/injection, schedule: Q04DX002 (ip), vehicle: saline with Tween-80); 91 % of control (dose: 50.0 mg/kg/injection, schedule: Q04DX002 (ip), vehicle: saline with Tween-80); 93 % of control and 88 % of control (dose: 100.0 mg/kg/injection, schedule: Q04DX002 (ip), vehicle: saline with Tween-80).

With `COc1ccc(-n2c(O)c(N=Nc3ccc(Br)cc3)c(=O)n(-c3ccccc3)c2=S)cc1`, the T/C is 102 % of control (dose: 50.0 mg/kg/injection, schedule: Q01DX001 (ip), vehicle: Klucel (hydroxypropylcellulose) (HPC)); 104 % of control (dose: 100.0 mg/kg/injection, schedule: Q01DX001 (ip), vehicle: Klucel (hydroxypropylcellulose) (HPC)); 100 % of control (dose: 200.0 mg/kg/injection, schedule: Q01DX001 (ip), vehicle: Klucel (hydroxypropylcellulose) (HPC)).

Regarding `CCCCCCCCCCOC(CN)C(Cl)(Cl)Cl` (stereo not drawn), the T/C is, setting by setting: (dose: 12.5 mg/kg/injection, schedule: Q01DX009 (ip), vehicle: saline with Tween-80) 93 % of control; (dose: 12.5 mg/kg/injection, schedule: Q04DX003 (ip), vehicle: saline with Tween-80) 98 % of control; (dose: 25.0 mg/kg/injection, schedule: Q01DX009 (ip), vehicle: saline with Tween-80) 97 % of control; (dose: 25.0 mg/kg/injection, schedule: Q04DX003 (ip), vehicle: saline with Tween-80) 101 % of control; (dose: 50.0 mg/kg/injection, schedule: Q04DX003 (ip), vehicle: saline with Tween-80) 103 % of control.

For `CCCCCCCCCCCSSCCCCCCCCCCC`, the T/C (dose: 100.0 mg/kg/injection, schedule: Q04DX003 (ip), vehicle: other) is 96 % of control; the T/C (dose: 200.0 mg/kg/injection, schedule: Q04DX003 (ip), vehicle: other) was 96 % of control; the T/C (dose: 400.0 mg/kg/injection, schedule: Q04DX003 (ip), vehicle: other) is 97 % of control.

Regarding `O=C(/C=C\c1ccccc1)OCc1ccccc1CN1C=CCC1`, the T/C under setting [1] was 86 % of control, the T/C under setting [2] is 104 % of control and the T/C under setting [3] was 86 % of control.

With `NNC(=O)c1ccc(-c2ccc[nH]2)[nH]1`, the T/C is 108 % of control (dose: 75.0 mg/kg/injection, schedule: Q01DX001 (ip), vehicle: saline) and 92 % of control (dose: 150.0 mg/kg/injection, schedule: Q01DX001 (ip), vehicle: saline).

For `Clc1c2ccccc2cc2ccccc12`, the T/C by setting is: under setting [1], 92 % of control; under setting [2], 100 % of control; under setting [3], 107 % of control.

As to `CC(C)(C)NC[Si](C)(C)C`, the T/C (dose: 100.0 mg/kg/injection, schedule: Q01DX009 (ip), vehicle: saline) is 92 % of control.

In the case of `Cc1cc(C(C)(C)CC(C)(C)C)ccc1O`, the T/C is, setting by setting: (dose: 100.0 mg/kg/injection, schedule: Q01DX009 (sc), vehicle: olive oil, sesame oil, peanut oil) 100 % of control; (dose: 100.0 mg/kg/injection, schedule: Q04DX003 (sc), vehicle: olive oil, sesame oil, peanut oil) 110 % of control; (dose: 200.0 mg/kg/injection, schedule: Q01DX009 (sc), vehicle: olive oil, sesame oil, peanut oil) 100 % of control; (dose: 200.0 mg/kg/injection, schedule: Q04DX003 (sc), vehicle: olive oil, sesame oil, peanut oil) 101 % of control; (dose: 400.0 mg/kg/injection, schedule: Q01DX009 (sc), vehicle: olive oil, sesame oil, peanut oil) 96 % of control; (dose: 400.0 mg/kg/injection, schedule: Q04DX003 (sc), vehicle: olive oil, sesame oil, peanut oil) 105 % of control.

For `S=c1nc[nH]c2c1[nH]c(=S)n2CCc1cnc[nH]1`, the T/C (dose: 24.0 mg/kg/injection, schedule: Q01DX009 (ip), vehicle: steriod suspending solution) was 98 % of control; the T/C (dose: 39.0 mg/kg/injection, schedule: Q01DX009 (ip), vehicle: steriod suspending solution) is 100 % of control; the T/C (dose: 65.0 mg/kg/injection, schedule: Q01DX009 (ip), vehicle: steriod suspending solution) was 102 % of control; the T/C (dose: 108.0 mg/kg/injection, schedule: Q01DX009 (ip), vehicle: steriod suspending solution) is 88 % of control; the T/C (dose: 400.0 mg/kg/injection, schedule: Q01DX001 (ip), vehicle: steriod suspending solution) was 94 % of control.

Take `Clc1cc(-c2ccccc2Br)nc2ccccc12`: the T/C (dose: 100.0 mg/kg/injection, schedule: Q01DX001 (ip), vehicle: saline) was 90 % of control; the T/C (dose: 200.0 mg/kg/injection, schedule: Q01DX001 (ip), vehicle: saline) is 90 % of control; the T/C (dose: 400.0 mg/kg/injection, schedule: Q01DX001 (ip), vehicle: saline) was 88 % of control.

The values above are taken from PubChem BioAssay AID248 (DTP/NCI, 2004).
